Reference: article PMC11890061 (2025)

Experiments:
[1] = tested on: FAM-D-(UG)12 mut2 (RNA, single strand) UGUGCGUGUGCGUGUGCGUGUGCG; test: NMM staining of native gel; conditions: 150 mM KCl (gel: 50 mM potassium acetate); 10 mM Tris-HCl pH 7.5; 2.5 μM oligo; 1 μg/mL NMM highest tested; no band
[2] = tested on: D-apt3.1b (RNA, aptamer) GCCGCACUUCUGGGGGGGUGGGAAGCGGC; test: ligand fluorescence enhancement; conditions: 150 mM KCl; 10 mM LiCaco pH 7.0; 1 μM RNA, 1 μM ligand; higher in K+ than Li+
[3] = tested on: D-apt3.1e (RNA, aptamer) GCCGCAAUGGUGGGUAGGUGGGAAGCGGC; test: ligand fluorescence enhancement; conditions: 150 mM KCl; 10 mM LiCaco pH 7.0; 1 μM RNA, 1 μM ligand; higher in K+ than Li+
[4] = tested on: D-(UG)12 (RNA, G4) UGUGUGUGUGUGUGUGUGUGUGUG; test: fluorescence titration (microplate reader); conditions: 150 mM KCl, 1 mM MgCl2; 25 mM Tris-HCl pH 7.5, 37 °C; 100 nM NMM, RNA varied; one-site fit
[5] = tested on: FAM-D-(UG)12 mut1 (RNA, single strand) UGUAUGUGUAUGUGUAUGUGUAUG; test: NMM staining of native gel; conditions: 150 mM KCl (gel: 50 mM potassium acetate); 10 mM Tris-HCl pH 7.5; 2.5 μM oligo; 1 μg/mL NMM highest tested; no band
[6] = tested on: FAM-D-(UG)12 (RNA, G4) UGUGUGUGUGUGUGUGUGUGUGUG; test: EMSA competition; conditions: 150 mM KCl, 1 mM MgCl2; 25 mM Tris-HCl pH 7.5, 37 °C; 250 nM L-apt3.1 (L-RNA aptamer) displaced; 10 nM RNA
[7] = tested on: D-apt3.1i (RNA, aptamer) GCCGCACUGGUGGGUCGGUGGGAGGCGGC; test: ligand fluorescence enhancement; conditions: 150 mM KCl; 10 mM LiCaco pH 7.0; 1 μM RNA, 1 μM ligand; higher in K+ than Li+
[8] = tested on: D-apt3.1h (RNA, aptamer) GCCGCACUGGUGGGUCGGUGGGGAGCGGC; test: ligand fluorescence enhancement; conditions: 150 mM KCl; 10 mM LiCaco pH 7.0; 1 μM RNA, 1 μM ligand; higher in K+ than Li+
[9] = tested on: D-apt3.1 (RNA, aptamer) GCCGCACUGGUGGGUCGGUGGGAAGCGGC; test: ligand fluorescence enhancement; conditions: 150 mM KCl; 10 mM LiCaco pH 7.0; 1 μM RNA, 1 μM ligand; higher in K+ than Li+
[10] = tested on: FAM-D-(TG)12 (DNA, single strand) TGTGTGTGTGTGTGTGTGTGTGTG; test: NMM staining of native gel; conditions: 150 mM KCl (gel: 50 mM potassium acetate); 10 mM Tris-HCl pH 7.5; 2.5 μM oligo; 1 μg/mL NMM highest tested; no band
[11] = tested on: D-apt3.1g (RNA, aptamer) GCCGCACUGGCGGGUCGGUGGGAAGCGGC; test: ligand fluorescence enhancement; conditions: 150 mM KCl; 10 mM LiCaco pH 7.0; 1 μM RNA, 1 μM ligand; higher in K+ than Li+
[12] = tested on: L-apt3.1 (L-RNA, aptamer, all L-ribonucleotides) GCCGCACUGGUGGGUCGGUGGGAAGCGGC; test: ligand fluorescence enhancement; conditions: 150 mM KCl; 10 mM LiCaco pH 7.0; 1 μM RNA, 1 μM ligand; higher in K+ than Li+

CCc1c(C)c2cc3nc(cc4nc(cc5c(CC)c(C)c(cc1[nH]2)n5C)C(C)=C4CCC(=O)O)C(CCC(=O)O)=C3C
binding [1]: no | binding [2]: yes | binding [3]: yes | Kd [4]: 0.3774 ± 0.1006 µM | binding [5]: no | IC50 [6]: 10.7 ± 1.1 µM | binding [7]: yes | binding [8]: yes | binding [9]: yes | binding [10]: no | binding [11]: yes | binding [12]: yes

Cc1ccc2c(c1)sc(-c1ccc(N(C)C)cc1)[n+]2C
binding [9]: yes | binding [12]: yes
